Test results: ChEMBL document CHEMBL2413072, “Synthesis and in vitro anticancer studies of novel C-2 arylidene congeners of lantadenes” (2013)
The source made the active and inactive calls. No cut-off for these calls is given here.

Key:
Format in all cases: functional
M14 [1] = experiment: Growth inhibition of human M14 cells assessed as cell growth at 10^-7 M by sulforhodamine B assay; details: read-out: Activity
HCT-116 [2] = experiment: Growth inhibition of human HCT116 cells assessed as cell growth at 10^-7 M by sulforhodamine B assay; details: read-out: Activity
IGROV-1 = experiment: Growth inhibition of human IGROV1 cells assessed as cell growth at 10^-6 M by sulforhodamine B assay; details: read-out: Activity
SK-MEL-28 [3] = experiment: Growth inhibition of human SK-MEL-28 cells assessed as cell growth at 10 uM by sulforhodamine B assay; details: read-out: Activity
A549 [4] = experiment: Growth inhibition of human A549/ATCC cells assessed as cell growth at 10 uM by sulforhodamine B assay; details: read-out: Activity
RPMI-8226 [5] = experiment: Growth inhibition of human RPMI8226 cells assessed as cell growth at 10^-8 M by sulforhodamine B assay; details: read-out: Activity
SF-268 = experiment: Growth inhibition of human SF268 cells assessed as growth inhibition at 10 uM by sulforhodamine B assay; details: read-out: GI
A549 [6] = experiment: Growth inhibition of human A549/ATCC cells assessed as cell growth at 10^-8 M by sulforhodamine B assay; details: read-out: Activity
K562 [7] = experiment: Growth inhibition of human K562 cells assessed as cell growth at 10 uM by sulforhodamine B assay; details: read-out: Activity
COLO 205 = experiment: Growth inhibition of human COLO205 cells assessed as growth inhibition at 10 uM by sulforhodamine B assay; details: read-out: GI
ACHN = experiment: Growth inhibition of human ACHN cells assessed as cell growth at 10^-6 M by sulforhodamine B assay; details: read-out: Activity
NCI-H522 [8] = experiment: Growth inhibition of human NCI-H522 cells assessed as cell growth at 10 uM by sulforhodamine B assay; details: read-out: Activity
SNB-19 = experiment: Growth inhibition of human SNB19 cells assessed as growth inhibition at 10 uM by sulforhodamine B assay
SF-295 = experiment: Growth inhibition of human SF295 cells assessed as cell growth at 10^-8 M by sulforhodamine B assay; details: read-out: Activity
NCI-H522 [9] = experiment: Growth inhibition of human NCI-H522 cells assessed as growth inhibition at 10 uM by sulforhodamine B assay; details: read-out: GI
SK-MEL-28 [10] = experiment: Growth inhibition of human SK-MEL-28 cells assessed as cell growth at 10^-7 M by sulforhodamine B assay; details: read-out: Activity
RPMI-8226 [11] = experiment: Growth inhibition of human RPMI8226 cells assessed as cell growth at 10^-4 M by sulforhodamine B assay; details: read-out: Activity
[12] = Growth inhibition of human Hs 578T cells assessed as cell growth at 10^-8 M by sulforhodamine B assay; details: read-out: Activity
BT-549 = experiment: Growth inhibition of human BT549 cells assessed as cell growth at 10 uM by sulforhodamine B assay; details: read-out: Activity
HL-60(TB) [13] = experiment: Growth inhibition of human HL-60(TB) cells assessed as growth inhibition at 10 uM by sulforhodamine B assay
SF-539 = experiment: Growth inhibition of human SF539 cells assessed as cell growth at 10^-4 M by sulforhodamine B assay; details: read-out: Activity
MDA-MB-231 = experiment: Growth inhibition of human MDA-MB-231 cells assessed as cell growth at 10 uM by sulforhodamine B assay; details: read-out: Activity
M14 [14] = experiment: Growth inhibition of human M14 cells assessed as growth inhibition at 10 uM by sulforhodamine B assay; details: read-out: GI
HL-60(TB) [15] = experiment: Growth inhibition of human HL-60(TB) cells assessed as cell growth at 10^-4 M by sulforhodamine B assay; details: read-out: Activity
NCI-H226 = experiment: Growth inhibition of human NCI-H226 cells assessed as cell growth at 10 uM by sulforhodamine B assay; details: read-out: Activity
HCT-116 [16] = experiment: Growth inhibition of human HCT116 cells assessed as cell growth at 10^-4 M by sulforhodamine B assay; details: read-out: Activity
786-0 = experiment: Growth inhibition of human 786-0 cells assessed as cell growth at 10^-6 M by sulforhodamine B assay; details: read-out: Activity
[17] = Growth inhibition of human NCI-ADR-RES cells assessed as cell growth at 10^-8 M by sulforhodamine B assay; details: read-out: Activity
SN12C [18] = experiment: Growth inhibition of human SN12C cells assessed as growth inhibition at 10 uM by sulforhodamine B assay; details: read-out: GI
SW-620 = experiment: Growth inhibition of human SW620 cells assessed as cell growth at 10 uM by sulforhodamine B assay; details: read-out: Activity
RPMI-8226 [19] = experiment: Growth inhibition of human RPMI8226 cells assessed as cell growth at 10 uM by sulforhodamine B assay; details: read-out: Activity
SN12C [20] = experiment: Growth inhibition of human SN12C cells assessed as cell growth at 10 uM by sulforhodamine B assay; details: read-out: Activity
Malme-3M = experiment: Growth inhibition of human MALME-3M cells by sulforhodamine B assay
NCI-H23 [21] = experiment: Growth inhibition of human NCI-H23 cells assessed as cell growth at 10^-4 M by sulforhodamine B assay; details: read-out: Activity
RXF 393 = experiment: Growth inhibition of human RXF393 cells assessed as cell growth at 10 uM by sulforhodamine B assay; details: read-out: Activity
KM12 = experiment: Growth inhibition of human KM12 cells assessed as growth inhibition at 10 uM by sulforhodamine B assay; details: read-out: GI
MDA-MB-435 = experiment: Growth inhibition of human MDA-MB-435 cells assessed as cell growth at 10^-6 M by sulforhodamine B assay; details: read-out: Activity
NCI-H322M = experiment: Growth inhibition of human NCI-H322M cells assessed as growth inhibition at 10 uM by sulforhodamine B assay
MDA-MB-468 = experiment: Growth inhibition of human MDA-MB-468 cells assessed as cell growth at 10^-7 M by sulforhodamine B assay; details: read-out: Activity
NCI-H23 [22] = experiment: Growth inhibition of human NCI-H23 cells assessed as cell growth at 10^-7 M by sulforhodamine B assay; details: read-out: Activity
[23] = Growth inhibition of human EKVX cells assessed as growth inhibition at 10 uM by sulforhodamine B assay; details: read-out: GI
K562 [24] = experiment: Growth inhibition of human K562 cells assessed as growth inhibition at 10 uM by sulforhodamine B assay; details: read-out: GI
SK-MEL-2 = experiment: Growth inhibition of human SK-MEL-2 cells assessed as cell growth at 10^-6 M by sulforhodamine B assay; details: read-out: Activity
HCT-15 = experiment: Growth inhibition of human HCT15 cells assessed as cell growth at 10^-8 M by sulforhodamine B assay; details: read-out: Activity
LOX IMVI = experiment: Growth inhibition of human LOXIMVI cells by sulforhodamine B assay
SNB-75 = experiment: Growth inhibition of human SNB75 cells assessed as cell growth at 10^-8 M by sulforhodamine B assay; details: read-out: Activity
[25] = read-out: LC50 (the source's name)
[26] = read-out: pLC50 (the source's name) (converted)

Q: For C/C=C(/C)C(=O)O[C@@H]1CC(C)(C)C[C@H]2C3=CC[C@@H]4[C@@]5(C)CC[C@H](O)C(C)(C)[C@@H]5CC[C@@]4(C)[C@]3(C)CC[C@@]12C(=O)O [Reduced Lantadene A], which growth at 0.1 µM (M14 [1]) is on record?
A: 92%

Q: And the growth at 0.1 µM (HCT-116 [2])?
A: 95%

Q: And the growth at 1 µM (IGROV-1)?
A: 111%

Q: What about the growth at 10 µM (SK-MEL-28 [3]) of the same compound?
A: 33.7%

Q: What about the growth at 10 µM (A549 [4]) of the same compound?
A: 27.4%

Q: And the growth at 0.01 µM (RPMI-8226 [5])?
A: 96%

Q: And the inhibition of growth at 10 µM (SF-268)?
A: 74.1%

Q: What about the growth at 0.01 µM (A549 [6]) of the same compound?
A: 93%

Q: And the growth at 10 µM (K562 [7])?
A: 35.9%

Q: And the inhibition of growth at 10 µM (COLO 205)?
A: 71.8%

Q: And the growth at 1 µM (ACHN)?
A: 87%

Q: What about the growth at 10 µM (NCI-H522 [8]) of the same compound?
A: 49.7%

Q: What about the “growth inhibition (GI)” value (SNB-19) of the same compound?
A: Active

Q: And the growth at 0.01 µM (SF-295)?
A: 93%

Q: What about the inhibition of growth at 10 µM (NCI-H522 [9]) of the same compound?
A: 50.3%

Q: And the growth at 0.1 µM (SK-MEL-28 [10])?
A: 88%

Q: And the growth at 100 µM (RPMI-8226 [11])?
A: -15%

Q: And the growth at 0.01 µM [12]?
A: 94%

Q: What about the growth at 10 µM (BT-549) of the same compound?
A: 26.1%

Q: What about the “growth inhibition (GI)” value (HL-60(TB) [13]) of the same compound?
A: Active

Q: What about the growth at 100 µM (SF-539) of the same compound?
A: -68%

Q: And the growth at 10 µM (MDA-MB-231)?
A: 22.2%

Q: And the inhibition of growth at 10 µM (M14 [14])?
A: 71.3%

Q: What about the growth at 100 µM (HL-60(TB) [15]) of the same compound?
A: -36%

Q: And the growth at 10 µM (NCI-H226)?
A: 42.1%

Q: What about the growth at 100 µM (HCT-116 [16]) of the same compound?
A: -62%

Q: What about the growth at 1 µM (786-0) of the same compound?
A: 97%

Q: And the growth at 0.01 µM [17]?
A: 102%

Q: What about the inhibition of growth at 10 µM (SN12C [18]) of the same compound?
A: 94.2%

Q: What about the growth at 10 µM (SW-620) of the same compound?
A: 39.1%

Q: And the growth at 10 µM (RPMI-8226 [19])?
A: 21.1%

Q: What about the growth at 10 µM (SN12C [20]) of the same compound?
A: 5.77%

Q: And the GI50 (Malme-3M; read-out: GI50)?
A: 1.83 µM

Q: And the CC50 (Malme-3M; [25])?
A: 7.7 µM

Q: What about the TGI (Malme-3M; read-out: TGI) of the same compound?
A: 3.75 µM

Q: And the GI50 (Malme-3M; read-out: pGI50 (converted))?
A: 1.82 µM

Q: What about the CC50 (Malme-3M; [26]) of the same compound?
A: 7.76 µM

Q: And the TGI (Malme-3M; read-out: pTGI (converted))?
A: 3.72 µM

Q: And the growth at 100 µM (NCI-H23 [21])?
A: -51%

Q: What about the growth at 10 µM (RXF 393) of the same compound?
A: 22.8%

Q: What about the inhibition of growth at 10 µM (KM12) of the same compound?
A: 78.3%

Q: And the growth at 1 µM (MDA-MB-435)?
A: 90%

Q: What about the “growth inhibition (GI)” value (NCI-H322M) of the same compound?
A: Active

Q: What about the growth at 0.1 µM (MDA-MB-468) of the same compound?
A: 86%

Q: And the growth at 0.1 µM (NCI-H23 [22])?
A: 99%

Q: And the inhibition of growth at 10 µM [23]?
A: 63.5%

Q: What about the inhibition of growth at 10 µM (K562 [24]) of the same compound?
A: 64.1%

Q: What about the growth at 1 µM (SK-MEL-2) of the same compound?
A: 109%

Q: What about the growth at 0.01 µM (HCT-15) of the same compound?
A: 100%

Q: And the GI50 (LOX IMVI; read-out: GI50)?
A: 3.39 µM

Q: What about the CC50 (LOX IMVI; [25]) of the same compound?
A: 66.8 µM

Q: What about the TGI (LOX IMVI; read-out: TGI) of the same compound?
A: 13 µM

Q: And the GI50 (LOX IMVI; read-out: pGI50 (converted))?
A: 3.39 µM

Q: What about the CC50 (LOX IMVI; [26]) of the same compound?
A: 66.1 µM

Q: And the TGI (LOX IMVI; read-out: pTGI (converted))?
A: 12.9 µM

Q: And the growth at 0.01 µM (SNB-75)?
A: 78%
